Experimental data from the supplement of paper PMC10307832.

How the values were obtained:
Experiment in all cases: relative viability (nuclei count vs DMSO), 5 days (fraction); higher = more cells survive
Serdemetan + Pemetrexed = compound: c1ccc2c(CCNc3ccc(Nc4ccncc4)cc3)c[nH]c2c1 [Serdemetan] + Nc1nc2[nH]cc(CCc3ccc(C(=O)N[C@@H](CCC(=O)O)C(=O)O)cc3)c2c(=O)[nH]1 [Pemetrexed] (partner 0.2 µM)
Outline: (§1)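 After 5 days of treatment, lung cancer cells in 1536-well plates were fixed and stained in a single step (final 0.05% Triton X-100, 1% formaldehyde, 1 ug/ml Hoechst) and their nuclei counted on 4× images. Treatment had been applied by pin tool the day after seeding as one drug alone or as a fixed anchor-drug dose with five library-drug doses (not always all listed) in √10 steps. Relative viability is the nuclei count of treated wells divided by that of vehicle wells, and values are medians of duplicate plates.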

Serdemetan + Navitoclax = compound: c1ccc2c(CCNc3ccc(Nc4ccncc4)cc3)c[nH]c2c1 [Serdemetan] + CC1(C)CCC(c2ccc(Cl)cc2)=C(CN2CCN(c3ccc(C(=O)NS(=O)(=O)c4ccc(N[C@H](CCN5CCOCC5)CSc5ccccc5)c(S(=O)(=O)C(F)(F)F)c4)cc3)CC2)C1 [Navitoclax] (partner 0.5 µM)
Outline: as §1

Selisistat + Tozasertib = compound: C1CC(C2=C(C1)C3=C(N2)C=CC(=C3)Cl)C(=O)N [Selisistat] + Cc1cc(Nc2cc(N3CCN(C)CC3)nc(Sc3ccc(NC(=O)C4CC4)cc3)n2)n[nH]1 [Tozasertib] (partner 0.1 µM)
Outline: as §1

Serdemetan + Crizotinib = compound: c1ccc2c(CCNc3ccc(Nc4ccncc4)cc3)c[nH]c2c1 [Serdemetan] + C[C@@H](Oc1cc(-c2cnn(C3CCNCC3)c2)cnc1N)c1c(Cl)ccc(F)c1Cl [Crizotinib] (partner 1 µM)
Outline: as §1

Row | Cell Line | relative viability (Serdemetan + Pemetrexed; first compound 0.04 µM) | relative viability (Serdemetan + Pemetrexed; first compound 0.1265 µM) | relative viability (Serdemetan + Pemetrexed; first compound 0.4 µM) | relative viability (Serdemetan + Pemetrexed; first compound 4 µM) | relative viability (Serdemetan + Navitoclax; first compound 0.04 µM) | relative viability (Serdemetan + Navitoclax; first compound 0.1265 µM) | relative viability (Serdemetan + Navitoclax; first compound 0.4 µM) | relative viability (Serdemetan + Navitoclax; first compound 1.265 µM) | relative viability (Serdemetan + Navitoclax; first compound 4 µM) | relative viability (Selisistat + Tozasertib; first compound 0.4 µM) | relative viability (Selisistat + Tozasertib; first compound 1.265 µM) | relative viability (Selisistat + Tozasertib; first compound 4 µM) | relative viability (Selisistat + Tozasertib; first compound 12.65 µM) | relative viability (Selisistat + Tozasertib; first compound 40 µM) | relative viability (Serdemetan + Crizotinib; first compound 0.04 µM) | relative viability (Serdemetan + Crizotinib; first compound 0.1265 µM) | relative viability (Serdemetan + Crizotinib; first compound 0.4 µM) | relative viability (Serdemetan + Crizotinib; first compound 1.265 µM) | relative viability (Serdemetan + Crizotinib; first compound 4 µM) | relative viability (Serdemetan + Pemetrexed; first compound 1.265 µM)
1 | NCI-H23 | 0.649 | 0.789 | 0.722 | 0.763 | 0.887 | 0.848 | 0.996 | 0.809 | 0.623 | 0.377 | 0.384 | 0.319 | 0.33 | 0.295 | 0.519 | 0.421 | 0.549 | 0.513 | 0.321 | 
2 | HCC-366 | 0.177 | 0.135 | 0.15 | 0.055 | 1.03 | 0.981 | 0.522 | 0.0806 | 0.0474 | 0.0912 | 0.131 | 0.064 | 0.0918 | 0.0529 | 0.528 | 0.412 | 0.117 | 0.0254 | 0.0545 | 0.0885
3 | EMC-BAC-2 | 0.457 | 0.446 | 0.437 | 0.4 | 1.14 | 1.14 | 1.1 | 1.09 | 0.745 | 0.302 | 0.286 | 0.404 | 0.281 | 0.257 | 0.727 | 0.778 | 0.694 | 0.5 | 0.39 | 0.346
4 | NCI-H2405 | 1.04 | 1.02 | 1.1 | 0.983 | 0.813 | 1.03 | 1.01 | 0.921 | 0.721 | 0.784 | 0.752 | 0.719 | 0.763 | 0.722 | 0.81 | 0.781 | 0.818 | 0.763 | 0.608 | 0.609
5 | NCI-H1944 | 0.581 | 0.599 | 0.741 | 0.476 | 1.07 | 1.04 | 0.978 |  | 0.376 | 0.273 | 0.243 |  | 0.231 | 0.256 | 0.973 | 1.02 | 0.904 |  | 0.419 | 0.469
6 | EPLC-272H | 0.316 | 0.367 | 0.342 | 0.374 | 1.11 | 1.15 | 0.822 | 0.632 | 0.691 | 0.265 | 0.231 |  | 0.34 | 0.191 | 0.939 | 0.692 | 0.868 | 0.612 | 0.837 | 0.269
7 | NCI-H1915 | 0.52 | 0.517 | 0.493 | 0.489 | 0.815 | 0.759 | 0.78 | 0.372 | 0.687 | 0.436 | 0.41 | 0.374 | 0.339 | 0.41 | 0.86 | 0.887 | 0.833 | 0.709 | 0.59 | 0.491
8 | NCI-H596 | 0.45 | 0.486 | 0.515 | 0.492 | 0.967 | 0.922 | 0.741 | 0.465 | 0.34 | 0.848 | 0.753 | 0.898 | 0.835 | 0.914 | 1 | 0.862 | 0.914 | 0.569 | 0.51 | 0.463
